Source: article PMC9694334, “Synthesis and Biological Evaluation of a Fused Structure of Indolizine and Pyrrolo[1,2-c]pyrimidine: Identification of Its Potent Anticancer Activity against Liver Cancer Cells” (Pharmaceuticals, 2022)

How the values were obtained:
Format in all cases: cell-based
[1] = system: HepG2 cells; experiment: Cell viability assay (MTS) in HepG2 cells; conditions: 10 μM, mean, n = 3
Method: (§1) HepG2, Huh7, H1299, HT29, AGS and A549 cells were purchased from the Korean Cell Line Bank (Seoul, Korea) and HaCaT cells were obtained from Prof. Sohee Kwon (Yonsei University, Korea). Liver cancer cells (HepG2), human keratinocyte cells (HaCaT), and lung cancer cells (A549) were grown in DMEM high-glucose medium, liver cancer cells (Huh7) and non-small cell lung cancer cells (H1299) were grown in RPMI 1640, and gastric cancer cells (AGS) were grown in Coon’s modified F12 medium. All media were supplemented with 10% FBS, 100 Units/mL penicillin, and 100 μg/mL streptomycin. All cells were incubated at 37 °C, 5% CO2 and 95% humidity.
(§2) Cell viability assay was conducted using Cell Titer 96® AQueous One Solution Cell proliferation Assay kit (Promega, Madison, WI, USA). Five cancer cells and HaCaT cells were plated in 96-well microplates with growth medium for 24 h. When cell confluency reached ~30%, cells were treated with DMSO (vehicle) and test compounds. The medium and test compounds were replaced every 24 h. To measure cell viability, the cells were incubated with MTS solution for 1 h. The absorbance was measured by using Infinite M200 microplate reader (Tecan, Männedorf, Switzerland) at 490 nm.
(§3) Figure 2 Effect of 5r on cell viability in HepG2, Huh7, AGS, H1299, A549, HaCaT, NIH3T3, and HEK293T cells. (A–H) HepG2, Huh7, AGS, H1299, A549, HaCaT, NIH3T3, and HEK293T cells were cultured with 5r at the indicated concentrations for 72 h, and medium was replaced every 24 h with freshly added 5r. Cell viability was measured by MTS analysis (mean ± S.D., n = 5). * p < 0.05, ** p < 0.01, *** p < 0.001.

[2] = system: H1299 cells; experiment: Cell viability assay (MTS) in H1299 cells; conditions: 10 μM, mean, n = 3
Method: as §1, §2, §3

[3] = system: HT29 cells; experiment: Cell viability assay (MTS) in HT29 cells; conditions: mean, n = 3
Method: as §1, §2

[4] = system: AGS cells; experiment: Cell viability assay (MTS) in AGS cells; conditions: 10 μM, mean, n = 3
Method: as §1, §2, §3

[5] = system: A549 cells; experiment: Cell viability assay (MTS) in A549 cells; conditions: 10 μM, mean, n = 3
Method: as §1, §2, §3

Structure (SMILES) | % Inhibition of Cell Viability at 10 μM HepG2 [1] [%] | % Inhibition of Cell Viability at 10 μM H1299 [2] [%] | % Inhibition of Cell Viability at 10 μM HT29 [3] [%] | % Inhibition of Cell Viability at 10 μM AGS [4] [%] | % Inhibition of Cell Viability at 10 μM A549 [5] [%]
COc1cc(-c2nc3c(c(C#N)c4ccccn43)c3cccn23)cc(OC)c1OC [Compound 5e, 5-(3,4,5-Trimethoxyphenyl)pyrrolo[1′,2′:1,6]pyrimido[5,4-b]indolizine-12-carbonitrile] | 37.7 | 89.0 | <25 | <25 | 25.3
COc1cc(OC)cc(-c2nc3c(c(C#N)c4ccccn43)c3cccn23)c1 [Compound 5d, 5-(3,5-Dimethoxyphenyl)pyrrolo[1′,2′:1,6]pyrimido[5,4-b]indolizine-12-carbonitrile] | 57.3 | 83.4 | <25 | <25 | <25
N#Cc1c2c3[nH]c4ccccc4c3c(-c3ccc(Br)cc3)nc2n2ccccc12 [Compound 10c, 7-(4-Bromophenyl)-12H-indolizino[2′,3′:5,6]pyrido[4,3-b]indole-13-carbonitrile] | 39.6 | <25 | <25 | <25 | <25
N#Cc1c2c3cccn3c(-c3ccccc3)nc2n2ccccc12 [Compound 5a, 5-Phenylpyrrolo[1′,2′:1,6]pyrimido[5,4-b]indolizine-12-carbonitrile] | 85.0 | 81.5 | <25 | <25 | <25
N#Cc1c2c3cccn3c(-c3ccccn3)nc2n2ccccc12 [Compound 5k, 5-(Pyridin-2-yl)pyrrolo[1′,2′:1,6]pyrimido[5,4-b]indolizine-12-carbonitrile] | 90.6 | 83.8 | 28.8 | <25 | 29.0
N#Cc1c2c3[nH]c4ccccc4c3c(-c3ccccc3)nc2n2ccccc12 [Compound 10a, 7-Phenyl-12H-indolizino[2′,3′:5,6]pyrido[4,3-b]indole-13-carbonitrile] | <25 | 68.8 | 61.2 | 48.4 | 45.9
N#Cc1c2c3cccn3c(-c3ccc(Br)cc3)nc2n2ccccc12 [Compound 5i, 5-(4-Bromophenyl)pyrrolo[1′,2′:1,6]pyrimido[5,4-b]indolizine-12-carbonitrile] | 87.4 | 92.1 | <25 | <25 | 36.7
N#Cc1c2c3cccn3c(-c3cccc4ccccc34)nc2n2ccccc12 [Compound 5g, 5-(Naphthalen-1-yl)pyrrolo[1′,2′:1,6]pyrimido[5,4-b]indolizine-12-carbonitrile] | 49.2 | 82.8 | <25 | <25 | <25
N#Cc1c2c3cccn3c(-c3ccco3)nc2n2ccccc12 [Compound 5m, 5-(Furan-2-yl)pyrrolo[1′,2′:1,6]pyrimido[5,4-b]indolizine-12-carbonitrile] | 64.0 | 81.9 | <25 | <25 | <25
N#Cc1c2c3cccn3c(-c3ccc4ccccc4c3)nc2n2ccccc12 [Compound 5f, 5-(Naphthalen-2-yl)pyrrolo[1′,2′:1,6]pyrimido[5,4-b]indolizine-12-carbonitrile] | 92.5 | 88.4 | <25 | <25 | <25
COc1ccc(-c2nc3c(c(C#N)c4ccccn43)c3cccn23)cc1OC [Compound 5c, 5-(3,4-Dimethoxyphenyl)pyrrolo[1′,2′:1,6]pyrimido[5,4-b]indolizine-12-carbonitrile] | 76.7 | 94.0 | 44.0 | 56.0 | 47.1
N#Cc1c2c3cccn3c(-c3cc4ccccc4[nH]3)nc2n2ccccc12 [Compound 5l, 5-(1H-Indol-2-yl)pyrrolo[1′,2′:1,6]pyrimido[5,4-b]indolizine-12-carbonitrile] | 99.2 | 62.3 | 58.6 | <25 | 46.9
N#Cc1c2c3cccn3c(-c3ccc(Cl)cc3)nc2n2ccccc12 [Compound 5h, 5-(4-Chlorophenyl)pyrrolo[1′,2′:1,6]pyrimido[5,4-b]indolizine-12-carbonitrile] | 88.4 | 80.0 | 26.9 | 31.0 | 52.5
N#Cc1c2c3cccn3cnc2n2ccccc12 [Compound 8, Pyrrolo[1′,2′:1,6]pyrimido[5,4-b]indolizine-12-carbonitrile] | <25 | <25 | <25 | <25 | <25
COC(=O)c1ccc(-c2nc3c(c(C#N)c4ccccn43)c3cccn23)cc1 [Compound 5j, Methyl 4-(12-cyanopyrrolo[1′,2′:1,6]pyrimido[5,4-b]indolizin-5-yl)benzoate] | 42.2 | 52.8 | <25 | <25 | <25
COc1ccc(-c2nc3c(c(C#N)c4ccccn43)c3cccn23)cc1 [Compound 5b, 5-(4-Methoxyphenyl)pyrrolo[1′,2′:1,6]pyrimido[5,4-b]indolizine-12-carbonitrile] | 57.0 | 79.1 | <25 | <25 | 25.5
COc1ccc(-c2nc3c(c(C#N)c4ccccn43)c3[nH]c4ccccc4c23)cc1 [Compound 10b, 7-(4-Methoxyphenyl)-12H-indolizino[2′,3′:5,6]pyrido[4,3-b]indole-13-carbonitrile] | <25 | <25 | <25 | <25 | <25
